# Legend:
# Details in all cases: 50 mM Tris pH 8.0; lipid monolayer, interfacial binding (not a 1:1 site)
# VpPLD-(His)6-WT = tested on: VpPLD-(His)6-WT
# (His)6-VpPLD-WT [1] = tested on: (His)6-VpPLD-WT
# (His)6-VpPLD-Δ451-487 = tested on: (His)6-VpPLD-Δ451-487
# (His)6-VpPLD-WT [2] = tested on: (His)6-VpPLD-WT; remark: listed apart in the source
# (His)6-VpPLD-Δ469-487 = tested on: (His)6-VpPLD-Δ469-487
# (His)6-VpPLD-Δ434-487 = tested on: (His)6-VpPLD-Δ434-487
# VpPLD-(His)6-Δ1-34 = tested on: VpPLD-(His)6-Δ1-34
# VpPLD-(His)6-Δ1-25 = tested on: VpPLD-(His)6-Δ1-25
Structure (SMILES),MIP (VpPLD-(His)6-WT),synergy factor a ((His)6-VpPLD-WT [1]),MIP ((His)6-VpPLD-Δ451-487),MIP ((His)6-VpPLD-WT [2]),MIP ((His)6-VpPLD-Δ469-487),MIP ((His)6-VpPLD-Δ434-487),MIP (VpPLD-(His)6-Δ1-34),MIP (VpPLD-(His)6-Δ1-25)
"CCCCCCCCCCCCCC(=O)OC[C@H](COP(=O)(O)OCC(O)CO)OC(=O)CCCCCCCCCCCCC (mixture of isomers) [DMPG, 1,2-Dimyristoyl-sn-glycero-3-phospho-rac-glyceol]",26.8 ± 0.9 mN m^-1,0.29 ± 0.03,–,–,–,–,–,–
"CCCCCCCCCCCCCC(=O)OC[C@H](COP(=O)([O-])OCC[N+](C)(C)C)OC(=O)CCCCCCCCCCCCC [DMPC, 1,2-Dimyristoyl-sn-glycero-3-phosphocholine]",37.4 ± 1.3 mN m^-1,–,34.9 ± 3.7 mN m^-1,29.6 ± 2.6 mN m^-1,29.8 ± 1.8 mN m^-1,–,–,–
"CCCCCCCCCCCCCC(=O)OC[C@H](COP(=O)(O)OCCN)OC(=O)CCCCCCCCCCCCC [DMPE, 1,2-Dimyristoyl-sn-glycero-3-phosphoethanolamine]",29.8 ± 2.8 mN m^-1,–,–,32.8 ± 3.7 mN m^-1,26.2 ± 2.7 mN m^-1,45.1 ± 2.8 mN m^-1,47.8 ± 8.7 mN m^-1,39.4 ± 6.2 mN m^-1
"CCCCCCCCCCCCCC(=O)OC[C@H](COP(=O)(O)OC[C@H](N)C(=O)O)OC(=O)CCCCCCCCCCCCC [DMPS, 1,2-Dimyristoyl-sn-glycero-3-phospho-L-serine]",38.5 ± 2.7 mN m^-1,–,36.4 ± 2.1 mN m^-1,34.8 ± 0.6 mN m^-1,–,40.4 ± 4.6 mN m^-1,36.5 ± 2.7 mN m^-1,30.4 ± 3.2 mN m^-1
